# ChEMBL document CHEMBL1201862, “PubChem BioAssay data set” (2004)
#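 Following 48 hours of exposure in 96-well plates, responses at five concentrations were used to interpolate endpoints linearly. At the GI50, growth is halved.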 Calls of active or inactive are those of the source. No stated cut-off is given here; in the data, active = GI50 up to about 1.1 µM and inactive = higher.
# What was measured:
# Experiment in all cases: growth of human tumour cells (NCI), 48 h
# [1] = test system: U-251
# [2] = test system: OVCAR-3
# [3] = test system: NCI-H226
# [4] = test system: SF-539
# [5] = test system: CCRF-CEM
# [6] = test system: UACC-62
# [7] = test system: SR
# [8] = test system: RPMI-8226
# [9] = test system: ACHN
# [10] = test system: COLO 205
# [11] = test system: MOLT-4
# [12] = test system: UO-31
# [13] = test system: OVCAR-5
# [14] = test system: HOP-62
# [15] = test system: NCI-H460
# [16] = test system: LOX IMVI
# [17] = test system: NCI-H23
# [18] = test system: PC-3
# [19] = test system: T47D
# [20] = test system: MDA-MB-231
SMILES,GI50 [1],GI50 [2],GI50 [3],GI50 [4],GI50 [5],GI50 [6],GI50 [7],GI50 [8],GI50 [9],GI50 [10],GI50 [11],GI50 [12],GI50 [13],GI50 [14],GI50 [15],GI50 [16],GI50 [17],GI50 [18],GI50 [19],GI50 [20]
COC(=O)C(C(=O)C(=O)Nc1c(Cl)cc([N+](=O)[O-])cc1Cl)c1csc(-n2nc(C3=CCCCC3)cc2-c2ccccc2)n1 (stereo not given),> 100 µM (inactive),59 µM (inactive),25.4 µM (inactive),34.8 µM (inactive),73.5 µM (inactive),65.8 µM (inactive),22.5 µM (inactive),27.9 µM (inactive),35.5 µM (inactive),32.1 µM (inactive),52.2 µM (inactive),25.9 µM (inactive),35 µM (inactive),64.9 µM (inactive),82.8 µM (inactive),43.9 µM (inactive),,,,
COC1=CC(=O)[C@]2(C)[C@H](C1=O)C(C)[C@H]2c1ccccc1 (stereo not given in full),> 100 µM (inactive),> 100 µM (inactive),> 100 µM (inactive),> 100 µM (inactive),> 100 µM (inactive),> 100 µM (inactive),> 100 µM (inactive),> 100 µM (inactive),> 100 µM (inactive),> 100 µM (inactive),> 100 µM (inactive),> 100 µM (inactive),> 100 µM (inactive),> 100 µM (inactive),> 100 µM (inactive),> 100 µM (inactive),> 100 µM (inactive),,,
CCOC(=O)c1nc2ccc(C(F)(F)F)cc2nc1Oc1cc(OC)c(OC)c(OC)c1,55.6 µM (inactive),> 100 µM (inactive),27.2 µM (inactive),62.2 µM (inactive),> 10 µM (inactive),94.8 µM (inactive),,> 100 µM (inactive),8.17 µM (inactive),17.7 µM (inactive),> 100 µM (inactive),> 100 µM (inactive),97.9 µM (inactive),25.6 µM (inactive),42.5 µM (inactive),> 100 µM (inactive),,> 100 µM (inactive),> 100 µM (inactive),87.7 µM (inactive)
COC(=O)/C=C\C1C(C(=O)OC)C2(C(=O)OC)CCC1(C(=O)OC)N2 (stereo not given),18.5 µM (inactive),15.3 µM (inactive),19.1 µM (inactive),17.8 µM (inactive),4.15 µM (inactive),15.9 µM (inactive),5.37 µM (inactive),5.08 µM (inactive),9.33 µM (inactive),4.19 µM (inactive),3.77 µM (inactive),17 µM (inactive),20 µM (inactive),18.1 µM (inactive),21.6 µM (inactive),13.4 µM (inactive),18.7 µM (inactive),,,
CC(=O)OCC1OC(n2cnc3c(I)nc(I)nc32)C(OC(C)=O)C1OC(C)=O (stereo not given),10.4 µM (inactive),7.55 µM (inactive),19.4 µM (inactive),16.1 µM (inactive),3.8 µM (inactive),13.6 µM (inactive),3.13 µM (inactive),10.9 µM (inactive),10 µM (inactive),,8.13 µM (inactive),17.7 µM (inactive),20.8 µM (inactive),18.8 µM (inactive),17.7 µM (inactive),14 µM (inactive),4.66 µM (inactive),,,
CN(C)CC(O)c1ccc(Cl)c2ccccc12 (stereo not given),37.1 µM (inactive),> 91 µM (inactive),> 27.3 µM (inactive),50.1 µM (inactive),20 µM (inactive),17.5 µM (inactive),,3.08 µM (inactive),45 µM (inactive),20.6 µM (inactive),23.2 µM (inactive),19.9 µM (inactive),> 100 µM (inactive),50.8 µM (inactive),31.2 µM (inactive),22.3 µM (inactive),> 87.1 µM (inactive),36.9 µM (inactive),21 µM (inactive),27.5 µM (inactive)
C=C(C(=O)O)C1CCC(CC/C=C(\C)CC/C=C(\C)CCC=C(C)C)CO1 (stereo not given),20.1 µM (inactive),,0.0723 µM (active),12.1 µM (inactive),22.6 µM (inactive),40 µM (inactive),,,28.6 µM (inactive),11.2 µM (inactive),,12.5 µM (inactive),18 µM (inactive),23.1 µM (inactive),,12.2 µM (inactive),18.5 µM (inactive),24.8 µM (inactive),26.2 µM (inactive),42.7 µM (inactive)
CCCCC1(O)CC2CC1C(C)C2(C)C (stereo not given),> 100 µM (inactive),> 100 µM (inactive),> 100 µM (inactive),> 100 µM (inactive),93.5 µM (inactive),> 100 µM (inactive),44.8 µM (inactive),54.6 µM (inactive),,> 100 µM (inactive),93.3 µM (inactive),> 100 µM (inactive),> 100 µM (inactive),> 100 µM (inactive),,> 100 µM (inactive),> 100 µM (inactive),> 100 µM (inactive),,> 100 µM (inactive)
